Like-named read-outs stand apart in the source and are kept apart here.
Assays:
[1] = system: patients with chronic hepatitis C; conditions: 2 grams 2 times a day, compared to placebo; cited from earlier work
[2] = system: obese subjects with hepatic steatosis; assay: Short-term dietary supplementation with serine in obese subjects with hepatic steatosis; assay type: in vivo, human
Procedure: To test the model-based predictions, we assessed the effect of short-term dietary supplementation with serine on fatty liver and fasting levels of plasma markers of liver functions in six obese subjects (BMI 32.5±2.70 kg/m2) with hepatic steatosis. Each patient received one oral dose of ˜20 g of L-serine (200 mg/kg) per day for 14 days. The supplementation was well-tolerated by all subjects. […] We examined the concept by testing if supplementation of GSH and NAD+ precursors for two weeks would decrease high fat diet induced liver fat accumulation in mice. Therefore, we gave serine 300 mg/kg/day and nicotinamide riboside (NR) 400 mg/kg/day la gavage as well as 1 g/l of NAC (N-acetyl-L-cysteine) in the drinking water for 14 days to high fat diet-fed mice.

[3] = cited from earlier work
[4] = system: Pasteurella multocida infection; conditions: mouse, in vivo; cited from earlier work
aging mice = conditions: mouse, in vivo; cited from earlier work
traumatic brain injury = conditions: mouse, in vivo; cited from earlier work
[5] = system: adults with hereditary sensory and autonomic neuropathy type 1 (HSAN1); conditions: 400 mg/kg/day, long-term (one to two years); cited from earlier work
[6] = system: LPS-induced acute lung injury; conditions: in vivo; cited from earlier work
[7] = after ingestion of supplemental nicotinamide; cited from earlier work
blood NAD+ [8] = conditions: cited from earlier work
blood NAD+ [9] = conditions: cited from earlier work; remark: listed apart in the source
[10] = cited from earlier work; remark: listed apart in the source
[11] = system: acute respiratory distress syndrome (ARDS); conditions: human, in vivo; cited from earlier work
[12] = cited from earlier work; remark: listed apart in the source
[13] = system: patients with community-acquired pneumonia; conditions: compared to conventional therapy; cited from earlier work
[14] = system: epithelial cells exposed to the H5N1 influenza A virus; conditions: cited from earlier work
HIV patients = conditions: cited from earlier work
[15] = cited from earlier work; remark: listed apart in the source
COPD exacerbations = conditions: in vivo; cited from earlier work
premature new-borns = conditions: 20 mg/kg/day; cited from earlier work
[16] = cited from earlier work; remark: listed apart in the source
[17] = system: acute myocardial infarction; conditions: five controlled trials, n=3108; cited from earlier work
[18] = system: lamb model with increased pulmonary blood flow; conditions: chronic treatment; cited from earlier work
[19] = cited from earlier work; remark: listed apart in the source
[20] = cited from earlier work; remark: listed apart in the source
mice = conditions: cited from earlier work

CC(=O)O[C@H](CC(=O)[O-])C[N+](C)(C)C [Acetyl-L-Carnitine]
daily activity and fatigue [1]: increase daily activity in patients, reduce fatigue

N[C@@H](CO)C(=O)O [L-serine]
ALT, AST, and ALP levels ([2]; after 14 days supplementation): significantly decreased | liver fat ([2]; after ~20 g L-serine (200 mg/kg) oral per day for 14 days, decreased significantly from 26.8±6.0%): 20.4±7.0% | tolerability ([2]; ~20 g L-serine per day for 14 days): well-tolerated | safety in humans ([3]; doses up to 400 mg/kg/day (around 25-30 g/day)): shown to be safe | safety in pregnancy ([3]; three daily doses of 5 g (190 mg/kg), pre- and postnatal treatment of 3-phosphoglycerate-dehydrogenase deficiency): safe even in pregnancy | macrophage- and neutrophil-mediated inflammatory responses [4]: decrease the macrophage- and neutrophil-mediated inflammatory responses | body weight, oxidative stress and inflammation (aging mice): reduce body weight by decreasing orexigenic peptide expression and reduces oxidative stress and inflammation | neuroprotection (traumatic brain injury): lead to neuroprotection | adverse effects (vital signs, physical examination, clinical laboratory) [5]: did not reveal adverse effects

O=C(O)c1cccnc1 [niacin]
LPS-induced acute lung injury [6]: alleviate LPS-induced acute lung injury

NC(=O)c1cccnc1 [nicotinamide]
flushing or glucose intolerance [7]: no cases of flushing or glucose intolerance have been reported

NC(=O)c1ccc[n+]([C@@H]2O[C@H](CO)[C@@H](O)[C@H]2O)c1 [NR, Nicotinamide riboside]
blood NAD+ metabolome (blood NAD+ [8]; single doses of 100, 300 and 1,000 mg): dose-dependent increases | rise of human blood NAD+ (blood NAD+ [8]; single oral dose, pilot study): ≤ 2.7 fold | tolerability (blood NAD+ [9]; oral, 250 mg up-titrated to 1000 mg twice daily, 9 days): well tolerated with no adverse events | increase of blood NAD+, baseline to steady state (blood NAD+ [9]; p=0.001): 100% | whole-blood NR, baseline to mean concentration at steady state (blood NAD+ [9]; p=0.03): Significant increases | lowest observed adverse effect level ([10]; 90-day study): 1000 mg/kg/day | no observed adverse effect level ([10]; 90-day study): 300 mg/kg/day | mortality ([10]; oral dose of 5000 mg/kg): no mortality

CC(=O)N[C@@H](CS)C(=O)O [NAC, N-acetylcysteine]
duration of stay in intensive care [11]: has been shortened | short-term mortality or 30-day mortality [11]: did not contribute to reducing short-term mortality or 30-day mortality | half-life ([12]; adults): 5.6 to 6 h | time to peak plasma concentration ([12]; after application): 30 to 60 min | absorption ([12]; after oral administration): rapidly absorbed | share of amount passed to the blood determined in the lungs ([12]; after oral administration): 48% | distribution volume (Vd) ([12]; in vivo): 0.33 to 0.47 L/kg | excreted in urine in the form of sulfate and taurine ([12]; in vivo): 22-30% | rate of binding to plasma proteins ([12]; in vivo): about 50% | effect of food intake ([12]; oral): not affected | inflammatory response and oxidative stress [13]: improves inflammatory response and oxidative stress | inflammatory response [14]: reduce | glutathione levels in red blood cells (HIV patients; 900 mg or 1800 mg twice daily): increased significantly | red blood cell oxidized glutathione levels (HIV patients; 900 mg or 1800 mg twice daily): decreased significantly | glutathione: glutathione disulfide (GSH:GSSG) ratios (HIV patients; both doses compared to placebo): generally non-significant increased | safety profile ([15]; HIV-infected patients, oral 6,000-8,000 mg daily for several months): good safety profile | safety in humans ([15]; daily dosage of 4-6 grams): shown to be safe | serious adverse events or signs of intoxication ([15]; even at very high doses): serious adverse events or signs of intoxication are not observed | incidence of most common adverse reactions (rash, urticaria/facial flushing, pruritus, nausea and vomiting) ([15]; in vivo): greater than 2% | anaphylactic reactions, share of people ([15]; within 30 min after IV loading dose): 3-6% | number and effect of COPD exacerbations (COPD exacerbations): reduce the number and effect of COPD exacerbations

C[N+](C)(C)CC(O)CC(=O)[O-] (stereo not shown) [carnitine]
total carnitine concentrations in plasma and red blood cells (premature new-borns): increases total carnitine concentrations in plasma and red blood cells | side effects ([16]; doses of approximately 3 g/day): nausea, vomiting, abdominal cramps, diarrhoea, and a “fishy” body odor

C[N+](C)(C)C[C@H](O)CC(=O)[O-] [L-carnitine]
heart failure, unstable angina, or myocardial reinfarction: daily 2 g versus 6 g [17]: no significant differences | lung carnitine homeostasis, oxidative stress, mitochondrial and endothelial function [18]: alleviates changes in lung carnitine homeostasis, reduces associated oxidative stress, and improves pulmonary mitochondrial function, NO signalling and eventually endothelial function | tolerability ([16]; in vivo): usually well tolerated | toxicity from over dosage ([16]; in vivo): no reports of toxicity | solubility in acetone [19]: insoluble | solubility in water, hot alcohol [19]: readily soluble | absolute bioavailability ([20]; in vivo): 15-16% | faecal excretion of total carnitine ([20]; in vivo): less than 1 % of the administered dose | mean apparent terminal elimination half-life ([20]; in vivo): 17.4 h | mean distribution half-life ([20]; in vivo): ~0.6 h | removal from plasma by dialysis ([20]; in vivo): easily removed from plasma by dialysis | total body clearance (Dose/AUC including endogenous baseline concentrations), mean ([20]; in vivo): 4.00 L/h | binding to plasma protein or albumin ([20]; tested at any concentration): not bound

CC(=O)N[C@@H](CSN=O)C(=O)O [SNOAC, S-nitroso-N-acetylcysteine]
expression of several important genes (mice; in vitro and in vivo): induced a hypoxia-like response | blood pressure in lungs and right ventricle (pulmonary artery hypertension) (mice; metabolite formed in mice treated with acetylcysteine): increased blood pressure in the lungs and right ventricle of the heart

— patent publication US20220088044A1, “SUBSTANCES FOR TREATMENT OF CORONAVIRUS INFECTION” (ScandiBio Therapeutics AB, priority 2020, published 2022)
